Measured values reported in paper PMC4980415 (Psychopharmacology, 2016).
Structures can show the parent of a compound that is named as a salt.

How the values were obtained:
[1] = biological target: T1, DA transporter (h), dopamine (Homo sapiens, UniProt Q01959); experiment: Off-target binding, General SEP II panel; conditions: 10 μM ITI-214, mean of n = 2
T1 construct: Caliper Life Sciences (contract screen)

[2] = biological target: T2, Potassium channel I[Kr], (hERG) (Homo sapiens, UniProt Q12809); experiment: Off-target binding, General SEP II panel; conditions: 10 μM ITI-214, mean of n = 2
T2 construct: Caliper Life Sciences (contract screen)

B2 (H), bradykinin = biological target: T3, B2 (H), bradykinin (Homo sapiens, UniProt P30411); experiment: Off-target binding, General SEP II panel; conditions: 10 μM ITI-214, mean of n = 2
T3 construct: Caliper Life Sciences (contract screen)
T3 sequence (P30411 1-391): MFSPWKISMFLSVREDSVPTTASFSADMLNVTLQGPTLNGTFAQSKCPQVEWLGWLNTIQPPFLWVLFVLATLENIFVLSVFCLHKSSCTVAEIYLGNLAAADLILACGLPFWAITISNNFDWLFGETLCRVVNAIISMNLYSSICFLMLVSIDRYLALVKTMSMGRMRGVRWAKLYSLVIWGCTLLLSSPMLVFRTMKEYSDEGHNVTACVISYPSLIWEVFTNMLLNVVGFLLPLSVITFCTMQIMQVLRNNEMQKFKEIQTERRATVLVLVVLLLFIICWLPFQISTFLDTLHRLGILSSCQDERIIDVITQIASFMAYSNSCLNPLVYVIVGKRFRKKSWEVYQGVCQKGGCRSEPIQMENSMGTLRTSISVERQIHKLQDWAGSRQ

[3] = tested on: memory acquisition and retrieval in male Wistar rats; experiment: Novel object recognition (NOR): suboptimal doses 2 h before T1 and T2; type: in vivo, rat
Procedure: The drug was administered, per os (po), by gavage to rats in a volume of 2 ml/kg body weight. Oral dosing solutions were prepared fresh daily. […] The pH of the dosing solution was adjusted to ~pH 5.5 by dropwise addition of 0.1 N NaOH in saline and volume adjusted by addition of saline in preparation for intraperitoneal (ip) dosing. […] Control treatments were always the vehicle solutions of the corresponding drugs.
The object recognition test was performed as described elsewhere (Ennaceur and Delacour [1988]; Akkerman et al. 2014). The apparatus consisted of a circular arena, 83 cm in diameter. Half of the 40-cm-high wall was made of gray polyvinyl chloride, the other half of transparent polyvinyl chloride. The light intensity was equal in the different parts of the apparatus, as fluorescent red tubes provided a constant illumination of about 20 lx on the floor of the apparatus. Two objects were placed in a symmetrical position at about 10 cm from the gray wall. Four different sets of objects were used. The different objects were (1) a cone consisting of a gray polyvinyl chloride base (maximal diameter 18 cm) with a collar on top made of brass (total height 16 cm), (2) a standard 1 L transparent glass bottle (diameter 10 cm, height 22 cm) filled with water, (3) a large metal cube (10.0 × 5.0 × 7.5 cm) with two holes (diameter 1.9 cm), and (4) a large aluminum cube with a tapering top (13.0 × 8.0 × 8.0 cm). The objects used in this study were carefully selected to be “novelty neutral,” that is to say the rats have no innate preference for one over the other. […]
A testing session consisted of two trials. […] The times spent in exploring each object during T1 and T2 were recorded manually using a personal computer. […]
The basic measure recorded was the time spent by each rat exploring an object during T1 and T2. […] The following variables were calculated: e1 = a1 + a2, e2 = a + b, and d2 = (b − a) / e2. […] Differences in exploration times between treatment conditions were analyzed using a t test or one-way ANOVA. […]

[4] = 0.3 mg/kg 2 h before T1 and 0.1 mg/kg 2 h before T2, po

T2 sequence (Q12809 whole entry): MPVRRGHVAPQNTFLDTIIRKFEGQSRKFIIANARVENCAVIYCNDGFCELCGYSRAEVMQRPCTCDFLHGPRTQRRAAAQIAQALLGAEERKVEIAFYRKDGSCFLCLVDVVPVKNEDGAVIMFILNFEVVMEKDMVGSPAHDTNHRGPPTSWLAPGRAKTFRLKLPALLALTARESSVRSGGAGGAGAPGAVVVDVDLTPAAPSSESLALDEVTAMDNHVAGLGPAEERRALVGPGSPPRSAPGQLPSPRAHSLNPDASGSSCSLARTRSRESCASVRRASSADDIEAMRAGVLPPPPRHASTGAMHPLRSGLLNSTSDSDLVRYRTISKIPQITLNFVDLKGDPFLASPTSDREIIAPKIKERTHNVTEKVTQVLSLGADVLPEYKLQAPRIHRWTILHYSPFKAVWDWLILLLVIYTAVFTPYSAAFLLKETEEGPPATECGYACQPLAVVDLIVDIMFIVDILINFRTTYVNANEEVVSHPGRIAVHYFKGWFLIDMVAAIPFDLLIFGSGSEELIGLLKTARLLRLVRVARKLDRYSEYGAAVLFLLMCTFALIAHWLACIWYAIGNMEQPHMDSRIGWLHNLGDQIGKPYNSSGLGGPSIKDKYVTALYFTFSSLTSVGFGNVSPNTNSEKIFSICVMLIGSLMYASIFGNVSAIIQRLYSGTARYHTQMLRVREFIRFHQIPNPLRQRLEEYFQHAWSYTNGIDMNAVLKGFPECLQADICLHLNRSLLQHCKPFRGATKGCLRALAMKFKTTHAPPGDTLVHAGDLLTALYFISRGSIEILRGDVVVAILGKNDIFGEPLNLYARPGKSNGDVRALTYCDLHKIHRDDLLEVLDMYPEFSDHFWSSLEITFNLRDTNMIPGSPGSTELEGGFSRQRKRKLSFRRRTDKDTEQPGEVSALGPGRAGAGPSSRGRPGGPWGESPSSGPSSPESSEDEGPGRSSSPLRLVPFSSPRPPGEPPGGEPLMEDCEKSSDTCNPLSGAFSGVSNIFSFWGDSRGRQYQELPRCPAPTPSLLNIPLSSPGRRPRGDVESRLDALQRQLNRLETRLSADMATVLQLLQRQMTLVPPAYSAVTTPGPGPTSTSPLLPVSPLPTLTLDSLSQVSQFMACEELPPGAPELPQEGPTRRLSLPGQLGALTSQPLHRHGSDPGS
T1 sequence (Q01959 whole entry): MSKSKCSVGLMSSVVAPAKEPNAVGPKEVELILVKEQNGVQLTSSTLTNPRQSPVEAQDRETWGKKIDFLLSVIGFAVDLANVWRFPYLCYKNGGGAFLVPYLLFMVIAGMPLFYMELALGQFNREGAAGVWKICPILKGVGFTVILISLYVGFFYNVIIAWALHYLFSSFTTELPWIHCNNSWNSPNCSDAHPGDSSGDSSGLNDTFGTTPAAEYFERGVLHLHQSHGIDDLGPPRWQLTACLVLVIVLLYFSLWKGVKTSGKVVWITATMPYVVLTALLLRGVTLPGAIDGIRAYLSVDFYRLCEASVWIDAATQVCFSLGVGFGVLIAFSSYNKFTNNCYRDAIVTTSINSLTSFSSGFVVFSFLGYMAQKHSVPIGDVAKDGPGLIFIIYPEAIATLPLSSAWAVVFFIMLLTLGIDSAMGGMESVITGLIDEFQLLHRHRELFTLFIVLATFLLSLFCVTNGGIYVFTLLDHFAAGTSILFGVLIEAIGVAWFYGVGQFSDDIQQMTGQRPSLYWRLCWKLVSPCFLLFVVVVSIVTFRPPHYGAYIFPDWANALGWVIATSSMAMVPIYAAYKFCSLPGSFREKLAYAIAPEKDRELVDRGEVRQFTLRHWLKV

CN1C(=O)c2c(nn(Cc3ccc(-c4cccc(F)n4)cc3)c2Nc2ccccc2)N2C1=N[C@@H]1CCC[C@@H]12 [ITI-214, (6aR,9aS)-2-(4-(6-fluoropyridin-2-yl)benzyl)-5-methyl-3-(phenylamino)-5,6a,7,8,9,9a-hexahydrocyclopenta-[4,5]imidazo[1,2-a]pyrazolo[4,3-e]pyrimidin-4-(2H)-one phosphate salt]
% Binding [1]: 58.70%
% Binding [2]: 35.09%
% Binding (B2 (H), bradykinin): 30.79%
Exploration time e1 (T1) [3, 4]: 30.43 (2.16) s
Exploration time e2 (T2) [3, 4]: 28.78 (1.26) s
effect on discrimination behavior (d2), combined sub-effective doses ([3]; 0.3 mg/kg 2 h before T1 plus 0.1 mg/kg 2 h before T2, different from chance and vehicle, p < 0.001): full increase in discrimination behavior
